# Measured values: PMC6390472, “‘Second-generation’ 1,2,3-triazole-based inhibitors of Porphyromonas gingivalis adherence to oral streptococci and biofilm formation” (MedChemComm, 2019)
# Read-outs that look alike come from different tables or passages of the source.
# Legend:
# [1] = system: P. gingivalis adherence to S. gordonii; test: Biofilm model of P. gingivalis adherence to S. gordonii (confocal, green/red fluorescence ratio); assay type: cell-based, P. gingivalis ATCC33277 / S. gordonii DL-1; settings: inhibition of P. gingivalis adherence to S. gordonii; concentration that reduced ratio of green to red fluorescence by 50%; tested 0–60 μM
# Protocol: (§1) P. gingivalis ATCC33277 was grown in reduced trypticase soy broth (Difco) supplemented with 0.5 percent yeast extract, 1 μg mL^–1 menadione, and 5 μg mL^–1 hemin. Twenty five milliliters of medium were reduced for 24 h under anaerobic conditions by equilibrating in an atmosphere consisting of 10% CO2, 10% H2, and 80% N2. Following equilibration, P. gingivalis was inoculated in the medium and grown for 48 h at 37 °C under anaerobic conditions. S. gordonii DL-1 (1) was cultured aerobically without shaking in brain heart infusion (BHI) broth supplemented with 1 percent yeast extract for 16 hours at 37 °C. For some compounds that inhibited P. gingivalis adherence to S. gordonii, we determined their effect on planktonic growth of P. gingivalis and S. gordonii. The appropriate growth medium (10 ml) was supplemented with 10 μl of a 40 mM compound stock solution in DMSO. After inoculation, broth cultures were incubated as described above and compared to cultures grown in medium that was supplemented only with 0.1% DMSO. The cell density of each culture was determined by measuring the optical density at 600 nm (O.D.600nm) and the percent growth inhibition/stimulation was calculated using the following equation: [(O.D.600nm of the control/O.D.600nm of the culture grown in the presence of compound) – 1] × 100.
# Two species biofilms were formed essentially as previously described.[39] To prepare bacterial cells for biofilm culture, 10 ml of an overnight S. gordonii culture was centrifuged at 5600 rpm for 5 min and the cell pellet was suspended in 1 mL sterile PBS. Subsequently, 20 μL of 5 mg ml^–1 hexidium iodide (Molecular Probes) was added to the cell suspension and incubated for 15 min with gentle shaking at room temperature in the dark. The labeled cells were centrifuged as described above, washed with phosphate-buffered saline (10 mM Na2HPO4, […], […], and 2.7 mM KCl, pH 7.2; [PBS]) and the cell pellet was suspended in PBS at a final O.D.600nm of 0.8. Similarly, 10 mL of a 48 h culture of P. gingivalis was centrifuged at 5600 rpm for 15 min, the cell pellet was suspended in 1 mL PBS and 20 μL of 5(6)-carboxyfluorescein N-hydroxysuccinimide ester (4 mg ml^–1, Molecular Probes, Inc.) was added. After incubation for 30 min with gentle shaking at room temperature in the dark, the suspension was centrifuged and washed as described above and suspended in PBS at a final O.D.600nm of 0.4. For biofilm cultures, 1 mL of labeled S. gordonii cells was added to each well of a 12-well microtiter plate (Greiner Bio-one) containing a circular coverslip (Fisher brand) and incubated in an anaerobic chamber with rotary shaking for 24 h at 37 °C. Unbound cells were removed by aspiration and 1 ml of labeled P. gingivalis cells containing the desired concentration of test compound was added and incubated under anaerobic conditions for 22 h at 37 °C. Test compounds were dissolved in dimethyl sulfoxide (DMSO) to generate 1000× stock solutions and were routinely tested over a final concentration range of 0–60 μM. 1 μL of the appropriate stock solution was added to each 1 mL aliquot of labeled P. gingivalis cells and incubated for 30 min at room temperature prior to adding the suspension to the microtiter plate wells. For control biofilms, 1 μL of DMSO was added to 1 mL of labeled P. gingivalis and incubated as described above.
# To visualize P. gingivalis/S. gordonii biofilms, unbound P. gingivalis cells were removed by aspiration and coverslips were washed once with PBS. Biofilms were fixed by incubating the coverslips with 1 mL of 4% paraformaldehyde for 5 min followed by two washes with PBS. The coverslips were then removed, placed face down on a glass microscope slide containing a drop of antifade reagent (Life Technology) and sealed with nail polish. […]
# [2] = system: P. gingivalis; test: Planktonic growth of P. gingivalis (O.D.600nm); assay type: cell-based, P. gingivalis ATCC33277; settings: Porphyromonas gingivalis, read-out: Percent inhibition of: P. gingivalis (planktonic growth)
# Protocol: as §1
# [3] = system: S. gordonii; test: Planktonic growth of S. gordonii (O.D.600nm); assay type: cell-based, S. gordonii DL-1; settings: Streptococcus gordonii, read-out: Percent inhibition of: S. gordonii (planktonic growth)
# Protocol: as §1
# [4] = system: TIGK cells; test: Cellular ATP levels, CellTiterGlo; assay type: cell-based, Human; settings: for ATP levels: 95 (5, 20, 40 μM), 111 (5, 20, 60 μM), 115 (5, 10, 20 μM), 122 (5, 20, 60 μM)
# Protocol: Human telomerase immortalized gingival keratinocytes (TIGKs) were provided by Dr. Richard Lamont (University of Louisville) and were authenticated by comparison to primary gingival epithelial cells for cell morphology, growth, cytokeratin expression and the expression of toll-like receptors. TIGKs were cultured at 37 °C in an atmosphere of 5% CO2 in Basal Medium Dermalife K complete kit with Supplements (LifeLine, Frederick, MD). Cultures were incubated for 5 days and attained >95% confluence.
# Cell metabolic activity was assessed by quantifying total ATP levels in cell culture samples using CellTiterGlo reagent (Promega). TIGK and J774A.1 cells were cultured and incubated with compounds as described above, washed three times with sterile PBS and incubated with 100 μl of CellTiterGlo substrate for 2 min with shaking and for an additional 10 min without shaking. Total light production was measured using a Victor 3 multi-label plate reader (PerkinElmer) in luminometer mode. All samples were assayed in triplicate.
# [5] = 40 μM compound, cultures incubated overnight, vs 0.1% DMSO
Structure (SMILES),IC50 [1],"inhibition at 40 µM [2, 5]","inhibition at 40 µM [3, 5]",other results
COc1ccccc1-c1cn(-c2ccc(S(=O)(=O)Cc3nc(-c4ccc(F)cc4)c(-c4ccc(F)cc4)o3)cc2)nn1 [Compound 54],21.2 µM,-3.4%,-3.3%,
O=S(=O)(Cc1nc(-c2ccc(Cl)cc2)c(-c2ccc(Cl)cc2)o1)c1ccc(-n2cc(-c3ccc(F)cc3)nn2)cc1 [Compound 56],6.3 µM,-2.7%,6.2 ± 8.8%,
COc1ccccc1-c1cn(-c2ccc(S(=O)(=O)Cc3nc(-c4ccc(Cl)cc4)c(-c4ccc(Cl)cc4)o3)cc2)nn1 [Compound 57],20 µM,,,melting point: 236 to 238 °C
CCN(CC)c1nc(-c2cn(-c3ccc(-c4nc(-c5ccc(F)cc5)c(-c5ccc(F)cc5)o4)cc3)nn2)nc(N(CC)CC)n1 [Compound 93],9.4 µM,2 ± 6.1%,-2%,
CCN(CC)c1nc(-c2cn(-c3ccc(-c4nc(-c5ccc(Cl)cc5)c(-c5ccc(Cl)cc5)o4)cc3)nn2)nc(N(CC)CC)n1 [Compound 95],3.7 µM,0.4 ± 6.1%,-0.8%,ATP levels ([4]; 18 h exposure): did not significantly reduce the levels of ATP
Fc1ccc(-c2nc(-c3cccc(-n4cc(-c5nc(Nc6ccccc6F)nc(Nc6ccccc6F)n5)nn4)c3)oc2-c2ccc(F)cc2)cc1 [Compound 102],5 µM,-8.3%,-0.6%,
Fc1ccc(-c2nc(-c3ccc(-n4cc(-c5nc(Nc6ccccc6F)nc(Nc6ccccc6F)n5)nn4)cc3)oc2-c2ccc(F)cc2)cc1 [Compound 103],12.3 µM,-1.3%,-8.6%,
Fc1ccc(Nc2nc(Nc3ccc(F)cc3)nc(-c3cn(-c4cccc(-c5nc(-c6ccccc6)c(-c6ccccc6)o5)c4)nn3)n2)cc1 [Compound 111],4.3 µM,,,"inhibition at 40 µM [2]: 8.3 ± 3.6%; inhibition at 40 µM [3]: 2.9 ± 3.9%; Concentration with cytotoxic activity relative to IC50 for inhibition of adherence ([4]; 60 μM vs IC50): approximately 15 fold; Reduction of ATP levels ([4]; 18 h exposure, 60 μM, p < 0.05 vs 0.1% DMSO): statistically significant; ATP levels ([4]; 18 h exposure): dose-dependent reduction of ATP levels"
Fc1ccc(Nc2nc(Nc3ccc(F)cc3)nc(-c3cn(-c4ccc(-c5nc(-c6ccccc6)c(-c6ccccc6)o5)cc4)nn3)n2)cc1 [Compound 112],> 60 µM,,,
Fc1ccc(Nc2nc(Nc3ccc(F)cc3)nc(-c3cn(-c4ccccc4-c4nc(-c5ccc(F)cc5)c(-c5ccc(F)cc5)o4)nn3)n2)cc1 [Compound 113],49.2 µM,,,
Fc1ccc(Nc2nc(Nc3ccc(F)cc3)nc(-c3cn(-c4cccc(-c5nc(-c6ccc(F)cc6)c(-c6ccc(F)cc6)o5)c4)nn3)n2)cc1 [Compound 114],> 60 µM,,,
Fc1ccc(Nc2nc(Nc3ccc(F)cc3)nc(-c3cn(-c4ccc(-c5nc(-c6ccc(F)cc6)c(-c6ccc(F)cc6)o5)cc4)nn3)n2)cc1 [Compound 115],2.3 µM,-2.8%,-0.6%,ATP levels ([4]; 18 h exposure): did not significantly reduce the levels of ATP
Fc1ccc(Nc2nc(Nc3ccc(F)cc3)nc(-c3cn(-c4ccccc4-c4nc(-c5ccc(Cl)cc5)c(-c5ccc(Cl)cc5)o4)nn3)n2)cc1 [Compound 116],> 40 µM,,,
Fc1ccc(Nc2nc(Nc3ccc(F)cc3)nc(-c3cn(-c4cccc(-c5nc(-c6ccc(Cl)cc6)c(-c6ccc(Cl)cc6)o5)c4)nn3)n2)cc1 [Compound 117],27.8 µM,,,
Fc1ccc(Nc2nc(Nc3ccc(F)cc3)nc(-c3cn(-c4ccc(-c5nc(-c6ccc(Cl)cc6)c(-c6ccc(Cl)cc6)o5)cc4)nn3)n2)cc1 [Compound 118],13.3 µM,,,
COc1ccc(-c2nc(-c3ccccc3-n3cc(-c4nc(Nc5ccc(F)cc5)nc(Nc5ccc(F)cc5)n4)nn3)oc2-c2ccc(OC)cc2)cc1 [Compound 119],> 60 µM,,,
COc1ccc(-c2nc(-c3cccc(-n4cc(-c5nc(Nc6ccc(F)cc6)nc(Nc6ccc(F)cc6)n5)nn4)c3)oc2-c2ccc(OC)cc2)cc1 [Compound 120],> 60 µM,,,
COc1ccc(-c2nc(-c3ccc(-n4cc(-c5nc(Nc6ccc(F)cc6)nc(Nc6ccc(F)cc6)n5)nn4)cc3)oc2-c2ccc(OC)cc2)cc1 [Compound 121],> 60 µM,,,
Fc1ccc(Nc2nc(Nc3ccc(F)cc3)nc(-c3cn(-c4ccccc4-c4nc(-c5ccco5)c(-c5ccco5)o4)nn3)n2)cc1 [Compound 122],2.4 µM,2.5 ± 5.4%,-0.6%,ATP levels ([4]; 18 h exposure): did not significantly reduce the levels of ATP
Fc1ccc(Nc2nc(Nc3ccc(F)cc3)nc(-c3cn(-c4cccc(-c5nc(-c6ccco6)c(-c6ccco6)o5)c4)nn3)n2)cc1 [Compound 123],8 µM,,,
Fc1ccc(Nc2nc(Nc3ccc(F)cc3)nc(-c3cn(-c4ccc(-c5nc(-c6ccco6)c(-c6ccco6)o5)cc4)nn3)n2)cc1 [Compound 124],7.8 µM,,,
"CN(C)[C@@H]1C(O)=C(C(N)=O)C(=O)[C@@]2(O)C(O)=C3C(=O)c4c(O)cccc4[C@@](C)(O)[C@H]3C[C@@H]12 [Tet, tetracycline, reference compound]",,,,inhibition at 10 µg/mL ([2]; 10 μg ml^–1 tetracycline): 95.7 ± 1.2%; inhibition at 10 µg/mL ([3]; 10 μg ml^–1 tetracycline): 94.2 ± 1.7%
